{"source": "patent US8257918B2", "about": "“Intelligent nanomedicine integrating diagnosis and therapy” (The Regents of the University of California, priority 2004, dated 2012)", "origin": "cited, not measured here", "key": {"tumor": {"test_system": "tumor", "conditions": "comparison with doxorubicin"}}, "data": [{"molecule": "COc1cccc2c1C(=O)c1c(O)c3c(c(O)c1C2=O)C[C@@](O)(C(=O)CO)C[C@@H]3O[C@H]1C[C@H](NC(=O)[C@@H](N)CC(C)C)[C@H](O)[C@H](C)O1", "note": "[Leu-Dox, N-1-leucyl-doxorubucin]", "values": [{"measurement": "anti-tumor efficiency relative to doxorubicin", "setting": "tumor", "result": "more efficient anti-tumor agents than doxorubicin"}]}, {"molecule": "COc1cccc2c1C(=O)c1c(O)c3c(c(O)c1C2=O)C[C@@](O)(C(=O)CO)C[C@@H]3O[C@H]1C[C@H](N)[C@H](O)[C@H](C)O1", "note": "[doxorubicin]", "values": [{"measurement": "cumulative doses that engender a substantial risk of cardiotoxicity", "result": "exceed 550 mg/m^2"}]}]}
